Experimental data: patent US20140073628A1, “BENZOXAZEPINES ASN INHIBITORS OF P13K/M TOR AND METHODS OF THEIR USE AND MANUFACTURE” (priority 2010, published 2014)

target: mTOR/GbL/Raptor (mTORC1) (Homo sapiens, UniProt P42345); assay: mTOR/GbL/Raptor (mTORC1) ELISA assay; format: biochemical; settings: phosphorylation of 4E-BP1; 0.2 nM mTORC1, 10 μM ATP, 50 nM NHis-tagged 4E-BP1
Protocol: mTOR/GbL/Raptor (mTORC1) ELISA Assay
The measurement of mTORC1 enzyme activity was performed in an ELISA assay format following the phosphorylation of 4E-BP1 protein. All experiments were performed in the 384-well format. Generally, 0.5 μL DMSO containing varying concentrations of the test compound was mixed with 15 μL enzyme solution. Kinase reactions were initiated with the addition of 15 μL of substrates-containing solution. The assay conditions were as follows; 0.2 nM mTORC1, 10 μM ATP and 50 nM NHis-tagged 4E-BP1 in 20 mM Hepes, pH 7.2, 1 mM DTT, 50 mM NaCl, 10 mM MnCl2, 0.02 mg/mL BSA, 0.01% CHAPS, 50 mM β-glycerophosphate. Following an incubation of 120 minutes at ambient temperature, 20 μL of the reaction volume was transferred to a Ni-Chelate-coated 384-well plate. The binding step of the 4E-BP1 protein proceeded for 60 minutes, followed by washing 4 times each with 50 μL of Tris-buffered saline solution (TBS). Anti-phospho-4E-BP1 rabbit-IgG (20 μL, 1:5000) in 5% BSA-TBST (0.2% Tween-20 in TBS) was added and further incubated for 60 minutes. Incubation with a secondary HRP-tagged anti-IgG was similarly performed after washing off the primary antibody (4 washes of 50 μL). Following the final wash step with TBST, 20 μL of SuperSignal ELISA Femto (Pierce Biotechnology) was added and the luminescence measured using an EnVision plate reader.

Question: With `COCCc1c(C)nc(CN(C)C)nc1N1CCOc2ccc(-c3ccc4nc(C)[nH]c4c3)cc2C1` [Compound 1, N,N-dimethyl-1-{4-methyl-6-[7-(2-methyl-1H-benzimidazol-6-yl)-2,3-dihydro-1,4-benzoxazepin-4(5H)-yl]-5-[2-(methyloxy)ethyl]pyrimidin-2-yl}methanamine] as the compound, how does the IC50 read?
Answer: 500 to 2500 nM

Question: For `Cc1nc2ccc(-c3ccc4c(c3)CN(c3nc(CN(C)C)nc(C)c3C)CCO4)cc2[nH]1` [Compound 2, I-{4,5-dimethyl-6-[7-(2-methyl-1H-benzimidazol-6-yl)-2,3-dihydro-1,4-benzoxazepin-4(5H)-yl]pyrimidin-2-yl}-N,N-dimethylmethanamine], which IC50 is on record?
Answer: 500 to 2500 nM

Question: How did the IC50 turn out when `CCN(CC)Cc1nc(C)c(C(C)C)c(N2CCOc3ccc(-c4ccc5nc(C)[nH]c5c4)cc3C2)n1` [Compound 3, N-ethyl-N-({4-methyl-6-[7-(2-methyl-1H-benzimidazol-5-yl)-2,3-dihydro-1,4-benzoxazepin-4(5H)-yl]-5-(1-methylethyl)pyrimidin-2-yl}methyl)ethanamine] was run?
Answer: 100 to 500 nM

Question: Which IC50 does the source give for `CC(=O)OCc1nc(C)c(C(C)C)c(N2CCOc3ccc(-c4ccc5nc(C)[nH]c5c4)cc3C2)n1` [Compound 4, {4-methyl-6-[7-(2-methyl-1H-benzimidazol-5-yl)-2,3-dihydro-1,4-benzoxazepin-4(5H)-yl]-5-(1-methylethyl)pyrimidin-2-yl}methyl acetate] here?
Answer: ≤ 100 nM

Question: Which IC50 does the source give for `Cc1nc2ccc(-c3ccc4c(c3)CN(c3nc(CO)nc(C)c3C(C)C)CCO4)cc2[nH]1` [Compound 5, {4-methyl-6-[7-(2-methyl-1H-benzimidazol-5-yl)-2,3-dihydro-1,4-benzoxazepin-4(5H)-yl]-5-(1-methylethyl)pyrimidin-2-yl}methanol] here?
Answer: ≤ 100 nM

Question: How did the IC50 turn out when `COC(=O)Cc1c(C)nc(CN(C)C)nc1N1CCOc2ccc(-c3ccc4nc(C)[nH]c4c3)cc2C1` [Compound 6, methyl {2-[(dimethylamino)methyl]-4-methyl-6-[7-(2-methyl-1H-benzimidazol-5-yl)-2,3-dihydro-1,4-benzoxazepin-4(5H)-yl]pyrimidin-5-yl}acetate] was run?
Answer: 500 to 2500 nM

Question: With `COCCOc1cc(-c2ccc3c(c2)CN(c2nc(CN(C)C)nc4c2CC(C)(C)CC4)CCO3)ccc1OC` [Compound 7, 1-(6,6-dimethyl-4-{7-[4-(methyloxy)-3-{[2-(methyloxy)ethyl]oxy}phenyl]-2,3-dihydro-1,4-benzoxazepin-4(5H)-yl}-5,6,7,8-tetrahydroquinazolin-2-yl)-N,N-dimethylmethanamine] as the compound, how does the IC50 read?
Answer: 100 to 500 nM

Question: For `COc1ccc(-c2ccc3c(c2)CN(c2nc(CN(C)C)nc4c2CC(C)(C)CC4)CCO3)cc1OC(F)F` [Compound 8, 1-{4-[7-{3-[(difluoromethyl)oxy]-4-(methyloxy)phenyl}-2,3-dihydro-1,4-benzoxazepin-4(5H)-yl]-6,6-dimethyl-5,6,7,8-tetrahydroquinazolin-2-yl}-N,N-dimethylmethanamine], which IC50 is on record?
Answer: 100 to 500 nM

Question: With `COc1ccc(-c2ccc3c(c2)CN(c2nc(CN(C)C)nc4c2CC(C)(C)CC4)CCO3)cc1S(C)(=O)=O` [Compound 9, 1-(6,6-dimethyl-4-{7-[4-(methyloxy)-3-(methylsulfonyl)phenyl]-2,3-dihydro-1,4-benzoxazepin-4(5H)-yl}-5,6,7,8-tetrahydroquinazolin-2-yl)-N,N-dimethylmethanamine] as the compound, how does the IC50 read?
Answer: 500 to 2500 nM

Question: `COc1ccc(-c2ccc3c(c2)CN(c2nc(CN(C)C)nc(C)c2C(C)C)CCO3)cc1NS(C)(=O)=O` [Compound 10] was tested. Which IC50 did it give?
Answer: 100 to 500 nM

Question: `Cc1nc2cc(-c3ccc4c(c3)CN(c3nc(NCCN(C)C)nc(C)c3Cc3ccc(F)cc3)CCO4)ccc2[nH]1` [Compound 11, N′-{5-[(4-fluorophenyl)methyl]-4-methyl-6-[7-(2-methyl-1H-benzimidazol-5-yl)-2,3-dihydro-1,4-benzoxazepin-4(5H)-yl]pyrimidin-2-yl}-N,N-dimethylethane-1,2-diamine] was tested. Which IC50 did it give?
Answer: ≤ 100 nM

Question: Which IC50 does the source give for `CCNc1nc(C)c(Cc2ccc(F)cc2)c(N2CCOc3ccc(-c4ccc5[nH]c(C)nc5c4)cc3C2)n1` [Compound 12, N-ethyl-5-[(4-fluorophenyl)methyl]-4-methyl-6-[7-(2-methyl-1H-benzimidazol-5-yl)-2,3-dihydro-1,4-benzoxazepin-4(5H)-yl]pyrimidin-2-amine] here?
Answer: ≤ 100 nM

Question: How did the IC50 turn out when `Cc1nc2cc(-c3ccc4c(c3)CN(c3nc(NCCCN(C)C)nc(C)c3Cc3ccc(F)cc3)CCO4)ccc2[nH]1` [Compound 13, N′-{5-[(4-fluorophenyl)methyl]-4-methyl-6-[7-(2-methyl-1H-benzimidazol-5-yl)-2,3-dihydro-1,4-benzoxazepin-4(5H)-yl]pyrimidin-2-yl}-N,N-dimethylpropane-1,3-diamine] was run?
Answer: ≤ 100 nM

Question: How did the IC50 turn out when `Cc1nc2cc(-c3ccc4c(c3)CN(c3nc(NC5CNC5)nc(C)c3Cc3ccc(F)cc3)CCO4)ccc2[nH]1` [Compound 14, N-azetidin-3-yl-5-[(4-fluorophenyl)methyl]-4-methyl-6-[7-(2-methyl-1H-benzimidazol-5-yl)-2,3-dihydro-1,4-benzoxazepin-4(5H)-yl]pyrimidin-2-amine] was run?
Answer: ≤ 100 nM

Question: With `Cc1nc2cc(-c3ccc4c(c3)CN(c3nc(NC5CNC5)nc(C)c3C(C)C)CCO4)ccc2[nH]1` [Compound 15, N-azetidin-3-yl-4-methyl-6-[7-(2-methyl-1H-benzimidazol-5-yl)-2,3-dihydro-1,4-benzoxazepin-4(5H)-yl]-5-(1-methylethyl)pyrimidin-2-amine] as the compound, how does the IC50 read?
Answer: ≤ 100 nM

Question: Which IC50 does the source give for `COc1ccc(-c2ccc3c(c2)CN(c2nc(N)nc(C)c2C(C)C)CCO3)cc1NS(C)(=O)=O` [Compound 16, N-[5-{4-[2-amino-6-methyl-5-(1-methylethyl)pyrimidin-4-yl]-2,3,4,5-tetrahydro-1,4-benzoxazepin-7-yl}-2-(methyloxy)phenyl]methanesulfonamide] here?
Answer: ≤ 100 nM

Question: `COC(=O)Nc1nc2cc(-c3ccc4c(c3)CN(c3nc(N)nc(C)c3C(C)C)CCO4)ccc2[nH]1` [Compound 17, methyl (5-{4-[2-amino-6-methyl-5-(1-methylethyl)pyrimidin-4-yl]-2,3,4,5-tetrahydro-1,4-benzoxazepin-7-yl}-1H-benzimidazol-2-yl)carbamate] was tested. Which IC50 did it give?
Answer: ≤ 100 nM

Question: `COc1ccc(-c2ccc3c(c2)CN(c2nc(CN(C)C)nc4c2CC(C)(C)CC4)CCO3)cc1C(C)=O` [Compound 18, 1-[5-(4-{2-[(dimethylamino)methyl]-6,6-dimethyl-5,6,7,8-tetrahydroquinazolin-4-yl}-2,3,4,5-tetrahydro-1,4-benzoxazepin-7-yl)-2-(methyloxy)phenyl]ethanone] was tested. Which IC50 did it give?
Answer: 100 to 500 nM

Question: Which IC50 does the source give for `Cc1nc2cc(-c3ccc4c(c3)CN(c3nc(CN5CCCC5)nc(C)c3C(C)C)CCO4)ccc2[nH]1` [Compound 20, 7-(2-methyl-1H-benzimidazol-5-yl)-4-[6-methyl-5-(1-methylethyl)-2-(pyrrolidin-1-ylmethyl)pyrimidin-4-yl]-2,3,4,5-tetrahydro-1,4-benzoxazepine] here?
Answer: 100 to 500 nM

Question: Which IC50 does the source give for `Cc1nc2cc(-c3ccc4c(c3)CN(c3nc(CN(C)C)nc(C)c3-c3ccccc3)CCO4)ccc2[nH]1` [Compound 21, N,N-dimethyl-1-{4-methyl-6-[7-(2-methyl-1H-benzimidazol-5-yl)-2,3-dihydro-1,4-benzoxazepin-4(5H)-yl]-5-phenylpyrimidin-2-yl}methanamine] here?
Answer: 100 to 500 nM

Question: With `Cc1nc2cc(-c3ccc4c(c3)CN(c3nc(CN(C)C)nc(C)c3CCCF)CCO4)ccc2[nH]1` [Compound 22, 1-{5-(3-fluoropropyl)-4-methyl-6-[7-(2-methyl-1H-benzimidazol-5-yl)-2,3-dihydro-1,4-benzoxazepin-4(5H)-yl]pyrimidin-2-yl}-N,N-dimethylmethanamine] as the compound, how does the IC50 read?
Answer: 500 to 2500 nM
